These are literature values, as cited in US20260115111A1, “METHOD FOR IMPROVING THE TACTILE SENSATION OF DYED KERATINOUS MATERIAL, ESPECIALLY HUMAN HAIR” (Henkel AG & Co. KGaA, priority 2019, published 2026).

The conditions of this series: 25° C.
Consider `CCN(Cc1cccc(S(=O)(=O)[O-])c1)c1ccc(C(=C2C=CC(=[N+](CC)Cc3cccc(S(=O)(=O)[O-])c3)C=C2)c2ccccc2S(=O)(=O)[O-])cc1.[Na+].[Na+]` [Acid Blue 9], for which the solubility in water result was “more than 20 wt. %”.

For `O=S(=O)([O-])c1ccc(N=Nc2c(O)ccc3ccccc23)cc1.[Na+]` [Acid Orange 7, sodium salt of 4-[(2-hydroxy-1-naphthyl)azo]benzene sulphonate], the solubility in water entry was “more than 7 g/L”.

`Nc1cc(S(=O)(=O)[O-])cc2cc(S(=O)(=O)[O-])c(N=Nc3ccccc3)c(O)c12.[Na+].[Na+]` [Acid Red 33, diantrium salt of 5-amino-4-hydroxy-3-(phenylazo)-naphthalene-2,7-disulphonate]: the solubility in water is 2500 µg/mL.

Regarding `O=C([O-])c1c(Cl)c(Cl)c(Cl)c(Cl)c1-c1c2c(Br)cc(=O)c(Br)c-2oc2c(Br)c(O)cc(Br)c12.O=C([O-])c1c(Cl)c(Cl)c(Cl)c(Cl)c1-c1c2c(Br)cc(=O)c(Br)c-2oc2c(Br)c(O)cc(Br)c12.[Na+].[Na+]` [Acid Red 92, disodium salt of 3,4,5,6-tetrachloro-2-(1,4,5,8-tetrabromo-6-hydroxy-3-oxoxanthen-9-yl)benzoic acid], the solubility in water result is on record as “greater than 10 g/L”.

Take `O=C([O-])C1=NN(c2ccc(S(=O)(=O)[O-])cc2)C(=O)C1N=Nc1ccc(S(=O)(=O)[O-])cc1.[Na+].[Na+].[Na+]` (centres unmarked) [Acid Yellow 23, trisodium salt of 4,5-dihydro-5-oxo-1-(4-sulfophenyl)-4-((4-sulfophenyl)azo)-1H-pyrazole-3-carboxylic acid]: the “solubility in water” value is listed as “highly soluble”.
